Values belong to the compound of their own block, whether it stands above or below them.
What was measured:
Experiment in all cases: radiometric filter-binding kinase assay
NEK6 (human) = NEK6 (human) (UniProt Q9HC98); settings: compound 10.0 µM
MAPKAPK2 (human) = MAPKAPK2 (human) (UniProt P49137)
PAK4 (human) = PAK4 (human) (UniProt O96013)
RPS6KA1 KD1 KD2 (human) = RPS6KA1 KD1 KD2 (human) (UniProt Q15418)
[1] = target: STK11 CAB39 STRADA (human) (UniProt Q9Y376+Q7RTN6+Q15831)
[2] = test system: RPS6KB1 (human), P23443 [T412E]
MKNK2 (human) = MKNK2 (human) (UniProt Q9HBH9)
Chain of MKNK2 (human) (Q9HBH9 whole entry, looked up): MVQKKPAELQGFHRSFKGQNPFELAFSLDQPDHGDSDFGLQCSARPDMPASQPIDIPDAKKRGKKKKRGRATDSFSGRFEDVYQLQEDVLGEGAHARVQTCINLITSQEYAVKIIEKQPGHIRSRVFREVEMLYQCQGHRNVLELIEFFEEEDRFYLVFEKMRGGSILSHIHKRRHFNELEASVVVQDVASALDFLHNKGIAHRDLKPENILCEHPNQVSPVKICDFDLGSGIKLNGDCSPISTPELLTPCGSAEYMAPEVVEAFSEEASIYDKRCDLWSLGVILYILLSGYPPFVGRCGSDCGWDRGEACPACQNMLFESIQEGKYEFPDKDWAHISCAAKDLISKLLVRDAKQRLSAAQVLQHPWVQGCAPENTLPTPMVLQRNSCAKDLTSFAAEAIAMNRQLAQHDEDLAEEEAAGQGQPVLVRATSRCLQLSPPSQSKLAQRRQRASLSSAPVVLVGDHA

[3] = test system: AKT1 (human), P31749 [S473D]
CHEK2 (human) = CHEK2 (human) (UniProt O96017)
NEK2 (human) = NEK2 (human) (UniProt P51955)
TBK1 (human) = TBK1 (human) (UniProt Q9UHD2)
Chain of TBK1 (human) (Q9UHD2 whole entry, looked up): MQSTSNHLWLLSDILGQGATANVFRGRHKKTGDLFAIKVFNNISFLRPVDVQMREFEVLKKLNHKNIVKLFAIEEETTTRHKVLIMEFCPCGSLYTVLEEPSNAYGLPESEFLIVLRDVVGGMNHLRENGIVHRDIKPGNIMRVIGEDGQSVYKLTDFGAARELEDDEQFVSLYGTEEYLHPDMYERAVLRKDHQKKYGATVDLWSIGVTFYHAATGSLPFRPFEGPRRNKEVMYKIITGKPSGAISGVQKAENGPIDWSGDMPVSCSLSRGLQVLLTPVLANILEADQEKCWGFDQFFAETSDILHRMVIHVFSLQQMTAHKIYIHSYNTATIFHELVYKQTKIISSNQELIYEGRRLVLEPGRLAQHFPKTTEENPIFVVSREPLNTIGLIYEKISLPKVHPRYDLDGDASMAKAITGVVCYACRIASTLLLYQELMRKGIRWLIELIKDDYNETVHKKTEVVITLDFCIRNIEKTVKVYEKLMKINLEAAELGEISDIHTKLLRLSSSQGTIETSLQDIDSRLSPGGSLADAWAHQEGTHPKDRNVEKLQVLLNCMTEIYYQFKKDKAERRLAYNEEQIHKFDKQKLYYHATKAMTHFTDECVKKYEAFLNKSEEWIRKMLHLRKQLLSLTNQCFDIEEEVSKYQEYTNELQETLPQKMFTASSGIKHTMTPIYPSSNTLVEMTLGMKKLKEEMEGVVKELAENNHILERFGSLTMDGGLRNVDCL

TTK (human) = TTK (human) (UniProt P33981)
MKNK1 (human) = MKNK1 (human) (UniProt Q9BUB5)
Chain of MKNK1 (human) (Q9BUB5 whole entry, looked up): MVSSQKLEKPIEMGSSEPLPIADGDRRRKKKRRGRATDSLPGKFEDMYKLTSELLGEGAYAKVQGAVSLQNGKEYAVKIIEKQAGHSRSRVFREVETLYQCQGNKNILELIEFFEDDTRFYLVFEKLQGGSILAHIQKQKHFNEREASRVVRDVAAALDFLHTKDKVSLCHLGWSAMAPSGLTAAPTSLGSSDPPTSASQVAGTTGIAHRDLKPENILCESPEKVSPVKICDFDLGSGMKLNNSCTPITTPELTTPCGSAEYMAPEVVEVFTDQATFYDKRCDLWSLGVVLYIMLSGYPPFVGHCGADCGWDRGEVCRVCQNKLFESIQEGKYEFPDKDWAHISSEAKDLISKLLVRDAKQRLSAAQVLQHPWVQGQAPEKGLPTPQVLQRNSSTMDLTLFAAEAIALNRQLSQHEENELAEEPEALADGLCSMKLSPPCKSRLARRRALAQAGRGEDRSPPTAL

JAK2 JH1 JH2 (human) = JAK2 JH1 JH2 (human) (UniProt O60674)
MAPK9 (human) = MAPK9 (human) (UniProt P45984)
IKBKB (human) = IKBKB (human) (UniProt O14920)
NTRK1 (human) = NTRK1 (human) (UniProt P04629)
NUAK1 (human) = NUAK1 (human) (UniProt O60285)
IRAK4 (human) = IRAK4 (human) (UniProt Q9NWZ3)
MAP3K11 (human) = MAP3K11 (human) (UniProt Q16584)
Chain of MAP3K11 (human) (Q16584 whole entry, looked up): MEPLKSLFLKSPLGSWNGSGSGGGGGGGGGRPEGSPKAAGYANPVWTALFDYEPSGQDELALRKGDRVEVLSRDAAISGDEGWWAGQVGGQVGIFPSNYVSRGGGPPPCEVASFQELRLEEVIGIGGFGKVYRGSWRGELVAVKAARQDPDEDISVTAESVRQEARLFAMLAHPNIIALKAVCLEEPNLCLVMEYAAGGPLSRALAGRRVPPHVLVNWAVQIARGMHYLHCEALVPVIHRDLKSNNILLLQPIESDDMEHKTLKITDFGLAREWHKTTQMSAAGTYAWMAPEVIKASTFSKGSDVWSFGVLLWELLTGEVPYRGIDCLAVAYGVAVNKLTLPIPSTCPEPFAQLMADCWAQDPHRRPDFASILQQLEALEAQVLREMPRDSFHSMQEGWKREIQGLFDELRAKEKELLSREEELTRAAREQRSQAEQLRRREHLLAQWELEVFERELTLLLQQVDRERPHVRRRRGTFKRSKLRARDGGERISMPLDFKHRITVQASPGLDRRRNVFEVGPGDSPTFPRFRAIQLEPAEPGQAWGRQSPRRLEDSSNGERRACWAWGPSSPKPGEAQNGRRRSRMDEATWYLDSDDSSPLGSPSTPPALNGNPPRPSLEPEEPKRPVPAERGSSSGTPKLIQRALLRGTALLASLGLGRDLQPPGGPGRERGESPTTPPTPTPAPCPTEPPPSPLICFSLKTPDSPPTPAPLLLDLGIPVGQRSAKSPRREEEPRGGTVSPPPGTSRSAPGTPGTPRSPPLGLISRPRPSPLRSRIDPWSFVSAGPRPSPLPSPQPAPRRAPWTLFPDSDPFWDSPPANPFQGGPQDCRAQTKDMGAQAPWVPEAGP

IKBKE (human) = IKBKE (human) (UniProt Q14164)
MAPK3 (human) = MAPK3 (human) (UniProt P27361)
MAPK14 (human) = MAPK14 (human) (UniProt Q16539)
CSNK1D (human) = CSNK1D (human) (UniProt P48730)
Chain of CSNK1D (human) (P48730 whole entry, looked up): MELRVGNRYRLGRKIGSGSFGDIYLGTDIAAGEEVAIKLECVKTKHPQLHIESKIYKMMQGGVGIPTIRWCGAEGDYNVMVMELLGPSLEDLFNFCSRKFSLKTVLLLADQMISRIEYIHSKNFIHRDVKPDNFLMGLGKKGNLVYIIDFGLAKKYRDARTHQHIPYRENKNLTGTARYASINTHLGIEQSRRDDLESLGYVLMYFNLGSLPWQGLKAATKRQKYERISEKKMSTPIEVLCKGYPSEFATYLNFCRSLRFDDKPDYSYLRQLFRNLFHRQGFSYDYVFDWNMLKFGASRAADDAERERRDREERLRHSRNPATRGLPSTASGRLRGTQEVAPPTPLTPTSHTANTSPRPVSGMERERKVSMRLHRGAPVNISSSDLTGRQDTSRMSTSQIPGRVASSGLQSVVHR

MARK2 (human) = MARK2 (human) (UniProt Q7KZI7)
MAP2K1 (human) = MAP2K1 (human) (UniProt Q02750)
PIM1 (human) = PIM1 (human) (UniProt P11309)
Chain of PIM1 (human) (P11309 whole entry, looked up): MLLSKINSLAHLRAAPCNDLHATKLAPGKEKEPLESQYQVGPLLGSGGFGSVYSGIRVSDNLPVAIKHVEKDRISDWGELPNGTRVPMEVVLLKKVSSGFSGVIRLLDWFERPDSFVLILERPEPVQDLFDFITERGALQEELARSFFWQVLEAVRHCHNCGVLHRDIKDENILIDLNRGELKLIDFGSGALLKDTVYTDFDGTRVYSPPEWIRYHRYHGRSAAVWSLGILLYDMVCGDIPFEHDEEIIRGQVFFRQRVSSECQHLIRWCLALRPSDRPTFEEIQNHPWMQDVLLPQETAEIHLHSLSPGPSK

EPHB2 (human) = EPHB2 (human) (UniProt P29323)
CaMK1 (human) = CaMK1 (human) (UniProt Q14012)
Chain of CaMK1 (human) (Q14012 whole entry, looked up): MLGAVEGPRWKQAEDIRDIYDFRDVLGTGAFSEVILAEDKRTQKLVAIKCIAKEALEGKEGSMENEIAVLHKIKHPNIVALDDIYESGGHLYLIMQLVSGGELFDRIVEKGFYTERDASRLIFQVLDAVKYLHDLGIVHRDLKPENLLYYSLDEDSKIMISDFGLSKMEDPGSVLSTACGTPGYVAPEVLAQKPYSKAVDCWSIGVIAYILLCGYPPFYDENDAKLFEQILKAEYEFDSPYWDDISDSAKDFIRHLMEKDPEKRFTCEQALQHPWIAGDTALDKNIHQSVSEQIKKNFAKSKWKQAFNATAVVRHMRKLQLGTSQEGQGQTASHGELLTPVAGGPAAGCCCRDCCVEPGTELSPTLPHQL

MARK1 (human) = MARK1 (human) (UniProt Q9P0L2)
DYRK1A (human) = DYRK1A (human) (UniProt Q13627)
MAPK8 (human) = MAPK8 (human) (UniProt P45983)
MARK3 (human) = MARK3 (human) (UniProt P27448)
DYRK3 (human) = DYRK3 (human) (UniProt O43781)
STK3 (human) = STK3 (human) (UniProt Q13188); settings: compound 10.0 µM

Chain of STK11 CAB39 STRADA (human) (Q15831 whole entry, looked up): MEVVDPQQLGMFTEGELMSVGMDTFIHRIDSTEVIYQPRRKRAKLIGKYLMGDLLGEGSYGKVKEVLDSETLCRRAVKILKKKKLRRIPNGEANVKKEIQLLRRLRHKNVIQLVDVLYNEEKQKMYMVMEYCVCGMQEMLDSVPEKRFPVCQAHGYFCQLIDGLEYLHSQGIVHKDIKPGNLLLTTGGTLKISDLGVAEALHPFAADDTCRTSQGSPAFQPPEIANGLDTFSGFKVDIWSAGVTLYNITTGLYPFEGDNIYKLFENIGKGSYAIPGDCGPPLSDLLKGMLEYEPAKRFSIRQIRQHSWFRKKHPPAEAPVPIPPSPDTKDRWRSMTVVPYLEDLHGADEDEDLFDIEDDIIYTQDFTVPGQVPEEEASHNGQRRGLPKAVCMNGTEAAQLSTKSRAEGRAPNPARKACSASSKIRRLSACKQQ
Chain of STK11 CAB39 STRADA (human) (Q7RTN6 whole entry, looked up): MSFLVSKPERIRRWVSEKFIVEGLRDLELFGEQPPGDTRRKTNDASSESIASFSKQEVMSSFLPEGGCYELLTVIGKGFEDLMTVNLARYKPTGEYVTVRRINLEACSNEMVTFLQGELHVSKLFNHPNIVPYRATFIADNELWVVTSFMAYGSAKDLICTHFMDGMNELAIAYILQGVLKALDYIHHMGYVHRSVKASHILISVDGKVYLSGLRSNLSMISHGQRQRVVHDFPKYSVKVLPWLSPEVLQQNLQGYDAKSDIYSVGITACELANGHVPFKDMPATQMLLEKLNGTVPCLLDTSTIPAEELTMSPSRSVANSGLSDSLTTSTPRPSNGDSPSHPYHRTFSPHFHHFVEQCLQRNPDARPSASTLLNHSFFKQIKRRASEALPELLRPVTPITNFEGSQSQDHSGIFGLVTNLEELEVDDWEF
Chain of STK11 CAB39 STRADA (human) (Q9Y376 whole entry, looked up): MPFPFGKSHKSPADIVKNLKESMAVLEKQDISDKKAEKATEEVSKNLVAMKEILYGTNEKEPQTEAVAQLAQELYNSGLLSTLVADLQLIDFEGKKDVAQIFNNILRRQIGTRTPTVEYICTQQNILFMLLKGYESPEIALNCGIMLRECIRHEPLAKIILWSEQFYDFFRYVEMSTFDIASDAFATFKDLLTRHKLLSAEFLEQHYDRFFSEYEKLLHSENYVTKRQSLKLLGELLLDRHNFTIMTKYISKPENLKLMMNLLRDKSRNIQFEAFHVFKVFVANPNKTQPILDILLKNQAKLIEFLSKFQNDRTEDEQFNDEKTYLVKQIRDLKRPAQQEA

residual activity (NEK6 (human)): 103%
residual activity (MAPKAPK2 (human); compound 10.0 µM): 92%
residual activity (MAPKAPK2 (human); compound 100.0 µM): 86%
residual activity (MAPKAPK2 (human); compound 1000.0 µM): 93%
residual activity (PAK4 (human); compound 10.0 µM): 76%
residual activity (PAK4 (human); compound 100.0 µM): 88%
residual activity (PAK4 (human); compound 1000.0 µM): 95%
residual activity (RPS6KA1 KD1 KD2 (human); compound 10.0 µM): 91%
residual activity (RPS6KA1 KD1 KD2 (human); compound 100.0 µM): 92%
residual activity (RPS6KA1 KD1 KD2 (human); compound 1000.0 µM): 90%
residual activity ([1]; compound 10.0 µM): 93%
residual activity ([1]; compound 100.0 µM): 97%
residual activity ([1]; compound 1000.0 µM): 100%
residual activity ([2]; compound 10.0 µM): 99%
residual activity ([2]; compound 100.0 µM): 101%
residual activity ([2]; compound 1000.0 µM): 115%
residual activity (MKNK2 (human); compound 10.0 µM): 101%
residual activity (MKNK2 (human); compound 100.0 µM): 107%
residual activity (MKNK2 (human); compound 1000.0 µM): 110%
residual activity ([3]; compound 10.0 µM): 93%
residual activity ([3]; compound 100.0 µM): 94%
residual activity ([3]; compound 1000.0 µM): 103%
residual activity (CHEK2 (human); compound 10.0 µM): 90%
residual activity (CHEK2 (human); compound 100.0 µM): 98%
residual activity (CHEK2 (human); compound 1000.0 µM): 100%
residual activity (NEK2 (human); compound 10.0 µM): 100%
residual activity (NEK2 (human); compound 100.0 µM): 100%
residual activity (NEK2 (human); compound 1000.0 µM): 102%
residual activity (TBK1 (human); compound 10.0 µM): 89%
residual activity (TBK1 (human); compound 100.0 µM): 100%
residual activity (TTK (human); compound 10.0 µM): 98%
residual activity (TTK (human); compound 100.0 µM): 93%
residual activity (TTK (human); compound 1000.0 µM): 93%
residual activity (MKNK1 (human); compound 10.0 µM): 101%
residual activity (MKNK1 (human); compound 100.0 µM): 103%
residual activity (MKNK1 (human); compound 1000.0 µM): 105%
residual activity (JAK2 JH1 JH2 (human); compound 10.0 µM): 100%
residual activity (JAK2 JH1 JH2 (human); compound 100.0 µM): 105%
residual activity (JAK2 JH1 JH2 (human); compound 1000.0 µM): 116%
residual activity (MAPK9 (human); compound 10.0 µM): 90%
residual activity (MAPK9 (human); compound 100.0 µM): 94%
residual activity (MAPK9 (human); compound 1000.0 µM): 101%
residual activity (IKBKB (human); compound 10.0 µM): 84%
residual activity (IKBKB (human); compound 100.0 µM): 91%
residual activity (IKBKB (human); compound 1000.0 µM): 85%
residual activity (NTRK1 (human); compound 10.0 µM): 88%
residual activity (NTRK1 (human); compound 100.0 µM): 96%
residual activity (NTRK1 (human); compound 1000.0 µM): 83%
residual activity (NUAK1 (human); compound 10.0 µM): 97%
residual activity (NUAK1 (human); compound 100.0 µM): 104%
residual activity (NUAK1 (human); compound 1000.0 µM): 101%
residual activity (IRAK4 (human); compound 10.0 µM): 88%
residual activity (IRAK4 (human); compound 100.0 µM): 104%
residual activity (IRAK4 (human); compound 1000.0 µM): 117%
residual activity (MAP3K11 (human); compound 10.0 µM): 100%
residual activity (MAP3K11 (human); compound 100.0 µM): 97%
residual activity (IKBKE (human); compound 10.0 µM): 80%
residual activity (IKBKE (human); compound 100.0 µM): 96%
residual activity (IKBKE (human); compound 1000.0 µM): 93%
residual activity (MAPK3 (human); compound 10.0 µM): 95%
residual activity (MAPK3 (human); compound 100.0 µM): 99%
residual activity (MAPK3 (human); compound 1000.0 µM): 100%
residual activity (MAPK14 (human); compound 10.0 µM): 90%
residual activity (MAPK14 (human); compound 100.0 µM): 99%
residual activity (MAPK14 (human); compound 1000.0 µM): 106%
residual activity (CSNK1D (human); compound 10.0 µM): 88%
residual activity (CSNK1D (human); compound 100.0 µM): 94%
residual activity (CSNK1D (human); compound 1000.0 µM): 105%
residual activity (MARK2 (human); compound 10.0 µM): 91%
residual activity (MARK2 (human); compound 100.0 µM): 108%
residual activity (MAP2K1 (human); compound 100.0 µM): 109%
residual activity (MAP2K1 (human); compound 1000.0 µM): 118%
residual activity (PIM1 (human); compound 10.0 µM): 99%
residual activity (PIM1 (human); compound 100.0 µM): 107%
residual activity (PIM1 (human); compound 1000.0 µM): 101%
residual activity (EPHB2 (human); compound 10.0 µM): 118%
residual activity (EPHB2 (human); compound 100.0 µM): 118%
residual activity (EPHB2 (human); compound 1000.0 µM): 120%
residual activity (CaMK1 (human); compound 10.0 µM): 88%
residual activity (CaMK1 (human); compound 100.0 µM): 96%
residual activity (CaMK1 (human); compound 1000.0 µM): 99%
residual activity (MARK1 (human); compound 10.0 µM): 98%
residual activity (MARK1 (human); compound 100.0 µM): 115%
residual activity (MARK1 (human); compound 1000.0 µM): 108%
residual activity (DYRK1A (human); compound 10.0 µM): 105%
residual activity (DYRK1A (human); compound 100.0 µM): 109%
residual activity (DYRK1A (human); compound 1000.0 µM): 113%
residual activity (MAPK8 (human); compound 10.0 µM): 99%
residual activity (MAPK8 (human); compound 100.0 µM): 92%
residual activity (MAPK8 (human); compound 1000.0 µM): 109%
residual activity (MARK3 (human); compound 100.0 µM): 108%
residual activity (MARK3 (human); compound 1000.0 µM): 132%
residual activity (DYRK3 (human); compound 10.0 µM): 105%
residual activity (DYRK3 (human); compound 1000.0 µM): 106%
Compound: COC(=O)/C=C/C(=O)OC

residual activity (NEK6 (human)): 78%
residual activity (MAPKAPK2 (human); compound 10.0 µM): 86%
residual activity (PAK4 (human); compound 10.0 µM): 83%
residual activity (RPS6KA1 KD1 KD2 (human); compound 10.0 µM): 90%
residual activity ([1]; compound 10.0 µM): 97%
residual activity ([2]; compound 10.0 µM): 95%
residual activity (MKNK2 (human); compound 10.0 µM): 92%
residual activity ([3]; compound 10.0 µM): 97%
residual activity (CHEK2 (human); compound 10.0 µM): 93%
residual activity (NEK2 (human); compound 10.0 µM): 102%
residual activity (STK3 (human)): 82%
residual activity (TBK1 (human); compound 10.0 µM): 85%
residual activity (TTK (human); compound 10.0 µM): 80%
residual activity (MKNK1 (human); compound 10.0 µM): 70%
residual activity (JAK2 JH1 JH2 (human); compound 10.0 µM): 97%
residual activity (MAPK9 (human); compound 10.0 µM): 87%
residual activity (IKBKB (human); compound 10.0 µM): 89%
residual activity (NTRK1 (human); compound 10.0 µM): 103%
residual activity (NUAK1 (human); compound 10.0 µM): 90%
residual activity (IRAK4 (human); compound 10.0 µM): 66%
residual activity (MAP3K11 (human); compound 10.0 µM): 89%
residual activity (MAPK3 (human); compound 10.0 µM): 86%
residual activity (MAPK14 (human); compound 10.0 µM): 74%
residual activity (CSNK1D (human); compound 10.0 µM): 79%
residual activity (MARK2 (human); compound 10.0 µM): 95%
residual activity (MAP2K1 (human); compound 10.0 µM): 99%
residual activity (PIM1 (human); compound 10.0 µM): 88%
residual activity (EPHB2 (human); compound 10.0 µM): 102%
residual activity (CaMK1 (human); compound 10.0 µM): 92%
residual activity (MARK1 (human); compound 10.0 µM): 109%
residual activity (DYRK1A (human); compound 10.0 µM): 72%
residual activity (MAPK8 (human); compound 10.0 µM): 88%
residual activity (MARK3 (human); compound 10.0 µM): 106%
residual activity (DYRK3 (human); compound 10.0 µM): 91%
Compound: O=S(=O)(c1ccc(F)c2nonc12)N1CCN(c2ncc(C(F)(F)F)cc2Cl)CC1

Source: the kinase profiling compilation of Christmann-Franck et al. (2016)
